In PubChem BioAssay (NCI):
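Growth conditions: 96-well plates. Treatment: test compound, 48 hours, 5 concentrations. Analysis: linear interpolation between bracketing concentrations; unreached endpoints set to highest concentration. The concentration for full growth arrest is given as TGI.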

Tests used:
Test in all cases: DTP human tumour cell line panel, 48 h
786-0 renal = test system: 786-0 renal
A498 renal = test system: A498 renal
A549 NSCLC = test system: A549 NSCLC
ACHN renal = test system: ACHN renal
BT-549 breast = test system: BT-549 breast
CAKI-1 renal = test system: CAKI-1 renal
CCRF-CEM leukemia = test system: CCRF-CEM leukemia
COLO 205 colon = test system: COLO 205 colon
DU-145 prostate = test system: DU-145 prostate
EKVX NSCLC = test system: EKVX NSCLC
HCC-2998 colon = test system: HCC-2998 colon
HCT-116 colon = test system: HCT-116 colon
HCT-15 colon = test system: HCT-15 colon
HL-60(TB) leukemia = test system: HL-60(TB) leukemia
HOP-62 NSCLC = test system: HOP-62 NSCLC
HOP-92 NSCLC = test system: HOP-92 NSCLC
HS 578T breast = test system: HS 578T breast
HT29 colon = test system: HT29 colon
IGROV1 ovarian = test system: IGROV1 ovarian
K-562 leukemia = test system: K-562 leukemia
KM12 colon = test system: KM12 colon
LOX IMVI melanoma = test system: LOX IMVI melanoma
M14 melanoma = test system: M14 melanoma
MALME-3M melanoma = test system: MALME-3M melanoma
MCF7 breast = test system: MCF7 breast
MDA-MB-231 breast = test system: MDA-MB-231 breast
MDA-MB-435 = test system: MDA-MB-435
MDA-N = test system: MDA-N
MOLT-4 leukemia = test system: MOLT-4 leukemia
NCI-H226 lung = test system: NCI-H226 lung
NCI-H23 lung = test system: NCI-H23 lung
NCI-H460 lung = test system: NCI-H460 lung
NCI-H522 lung = test system: NCI-H522 lung
NCI/ADR-RES ovarian = test system: NCI/ADR-RES ovarian
OVCAR-3 ovarian = test system: OVCAR-3 ovarian
OVCAR-4 ovarian = test system: OVCAR-4 ovarian
OVCAR-5 ovarian = test system: OVCAR-5 ovarian
OVCAR-8 ovarian = test system: OVCAR-8 ovarian
PC-3 prostate = test system: PC-3 prostate
RPMI-8226 leukemia = test system: RPMI-8226 leukemia
RXF 393 renal = test system: RXF 393 renal
SF-268 CNS = test system: SF-268 CNS
SF-295 CNS = test system: SF-295 CNS
SK-MEL-2 melanoma = test system: SK-MEL-2 melanoma
SK-MEL-28 melanoma = test system: SK-MEL-28 melanoma
SK-MEL-5 melanoma = test system: SK-MEL-5 melanoma
SK-OV-3 ovarian = test system: SK-OV-3 ovarian
SN12C renal = test system: SN12C renal
SNB-19 CNS = test system: SNB-19 CNS
SW-620 colon = test system: SW-620 colon
T-47D breast = test system: T-47D breast
TK-10 renal = test system: TK-10 renal
U251 CNS = test system: U251 CNS
UACC-257 melanoma = test system: UACC-257 melanoma
UACC-62 melanoma = test system: UACC-62 melanoma
UO-31 renal = test system: UO-31 renal
SF-539 CNS = test system: SF-539 CNS
SNB-75 CNS = test system: SNB-75 CNS
SR leukemia = test system: SR leukemia

Work on `COc1cc(N(CCC#N)CCC#N)ccc1/C(N=Nc1cccc(C)c1)=N\NC(=O)c1ccc(C)cc1` yielded a TGI (786-0 renal) greater than 100 µM, a TGI (A498 renal) of 44.1 µM and a TGI (A549 NSCLC) greater than 100 µM. It also gave a TGI (ACHN renal) of 63 µM, a TGI (BT-549 breast) greater than 100 µM and a TGI (CAKI-1 renal) greater than 100 µM. The TGI (CCRF-CEM leukemia) was greater than 100 µM, the TGI (COLO 205 colon) was greater than 100 µM and the TGI (DU-145 prostate) was greater than 100 µM. The TGI (EKVX NSCLC) was greater than 100 µM, the TGI (HCC-2998 colon) was greater than 100 µM and the TGI (HCT-116 colon) was greater than 100 µM. For the same molecule, the TGI (HCT-15 colon) was greater than 100 µM, the TGI (HL-60(TB) leukemia) was greater than 100 µM and the TGI (HOP-62 NSCLC) was greater than 100 µM. It also gave a TGI (HOP-92 NSCLC) greater than 100 µM, a TGI (HS 578T breast) greater than 100 µM and a TGI (HT29 colon) greater than 100 µM. For the same molecule, the TGI (IGROV1 ovarian) was greater than 100 µM, the TGI (K-562 leukemia) was greater than 100 µM and the TGI (KM12 colon) was greater than 100 µM. It also gave a TGI (LOX IMVI melanoma) greater than 100 µM, a TGI (M14 melanoma) greater than 100 µM and a TGI (MALME-3M melanoma) greater than 100 µM. For the same molecule, the TGI (MCF7 breast) was greater than 100 µM, the TGI (MDA-MB-231 breast) was greater than 100 µM and the TGI (MDA-MB-435) was greater than 100 µM. The TGI (MDA-N) was greater than 100 µM, the TGI (MOLT-4 leukemia) was greater than 100 µM and the TGI (NCI-H226 lung) was greater than 100 µM. It also gave a TGI (NCI-H23 lung) greater than 100 µM, a TGI (NCI-H460 lung) greater than 100 µM and a TGI (NCI-H522 lung) greater than 100 µM. It also gave a TGI (NCI/ADR-RES ovarian) greater than 100 µM, a TGI (OVCAR-3 ovarian) greater than 100 µM and a TGI (OVCAR-4 ovarian) greater than 100 µM. For the same molecule, the TGI (OVCAR-5 ovarian) was greater than 100 µM, the TGI (OVCAR-8 ovarian) was greater than 100 µM and the TGI (PC-3 prostate) was greater than 100 µM. The TGI (RPMI-8226 leukemia) was greater than 100 µM, the TGI (RXF 393 renal) was greater than 100 µM and the TGI (SF-268 CNS) was greater than 100 µM. For the same molecule, the TGI (SF-295 CNS) was greater than 100 µM, the TGI (SK-MEL-2 melanoma) was greater than 100 µM and the TGI (SK-MEL-28 melanoma) was greater than 100 µM. It also gave a TGI (SK-MEL-5 melanoma) greater than 100 µM, a TGI (SK-OV-3 ovarian) greater than 100 µM and a TGI (SN12C renal) greater than 100 µM. The TGI (SNB-19 CNS) was greater than 100 µM, the TGI (SW-620 colon) was greater than 100 µM and the TGI (T-47D breast) was greater than 100 µM. It also gave a TGI (TK-10 renal) greater than 100 µM, a TGI (U251 CNS) greater than 100 µM and a TGI (UACC-257 melanoma) greater than 100 µM. For the same molecule, the TGI (UACC-62 melanoma) was greater than 100 µM and the TGI (UO-31 renal) was greater than 100 µM.
In the case of `CC(C)[Si](OC1=CCC[C@H]2NC(=O)[C@@H](Cc3ccc([N+](=O)[O-])cc3)[C@@]12C)(C(C)C)C(C)C`, the TGI (786-0 renal) is reported as 17.8 µM, the TGI (A549 NSCLC) is reported as 5.17 µM and the TGI (ACHN renal) is reported as 4.28 µM. It also gave a TGI (BT-549 breast) of 13.2 µM, a TGI (CAKI-1 renal) of 26.2 µM and a TGI (CCRF-CEM leukemia) of 8.19 µM. The TGI (COLO 205 colon) was 17 µM, the TGI (DU-145 prostate) was 21.3 µM and the TGI (EKVX NSCLC) was 18.7 µM. The TGI (HCC-2998 colon) was 4.22 µM, the TGI (HCT-116 colon) was 12.7 µM and the TGI (HCT-15 colon) was 15.6 µM. For the same molecule, the TGI (HL-60(TB) leukemia) was 24.4 µM, the TGI (HOP-62 NSCLC) was 17.3 µM and the TGI (HS 578T breast) was 25.1 µM. The TGI (HT29 colon) was 5.13 µM, the TGI (IGROV1 ovarian) was 28.8 µM and the TGI (K-562 leukemia) was 13.7 µM. It also gave a TGI (KM12 colon) of 13.1 µM, a TGI (LOX IMVI melanoma) of 15.8 µM and a TGI (M14 melanoma) of 26.2 µM. It also gave a TGI (MALME-3M melanoma) of 43.4 µM, a TGI (MCF7 breast) of 10.7 µM and a TGI (MDA-MB-231 breast) of 28.1 µM. For the same molecule, the TGI (MDA-N) was 18 µM, the TGI (MOLT-4 leukemia) was greater than 100 µM and the TGI (NCI-H23 lung) was 18.6 µM. For the same molecule, the TGI (NCI-H460 lung) was 10.5 µM, the TGI (NCI-H522 lung) was 17.9 µM and the TGI (NCI/ADR-RES ovarian) was 28 µM. For the same molecule, the TGI (OVCAR-3 ovarian) was 11.7 µM, the TGI (OVCAR-4 ovarian) was 17.1 µM and the TGI (OVCAR-5 ovarian) was 21.2 µM. The TGI (OVCAR-8 ovarian) was 24.4 µM, the TGI (PC-3 prostate) was 12 µM and the TGI (RXF 393 renal) was 4.72 µM. It also gave a TGI (SF-268 CNS) of 24.8 µM, a TGI (SF-295 CNS) of 16.9 µM and a TGI (SF-539 CNS) of 5.41 µM. It also gave a TGI (SK-MEL-2 melanoma) of 28 µM, a TGI (SK-MEL-5 melanoma) of 5.58 µM and a TGI (SK-OV-3 ovarian) of 21.7 µM. The TGI (SN12C renal) was 3.8 µM, the TGI (SNB-19 CNS) was 25.9 µM and the TGI (SNB-75 CNS) was 23.8 µM. It also gave a TGI (SR leukemia) of 8.02 µM, a TGI (T-47D breast) of 18.4 µM and a TGI (TK-10 renal) of 23.9 µM. For the same molecule, the TGI (UACC-257 melanoma) was 17.8 µM, the TGI (UACC-62 melanoma) was 27.7 µM and the TGI (UO-31 renal) was 26.4 µM.
